US20110130421A1, “Methods and Compositions for the Treatment of Chronic Renal Hypertension” (Georgetown University, priority 2009, published 2011)
Entries after “also recorded” stand apart in the source; their conditions may differ.

Columns and labels:
[1] = system: chronic 2K,1C Goldblatt rats; test: Acute interventions in anesthetized chronic 2K,1C rats twelve months after clipping: MAP, cortical blood flow and renal pO2 of the clipped kidney; type: in vivo, Sprague-Dawley rats
Experimental: (§1) As described in Welch et al., Hypertension, 41:692-696 (2003) and Palm et al., Hypertension, 51:345-351 (2008), young male Sprague-Dawley rats (80-100 g) were anesthetized with isoflurane (0.5-1.5%). A silver clip (0.2 mm) was placed around the left renal artery (2K,1C). Age-matched rats were used as controls (sham).
(§2) All rats received hydralazine+hydrochlorothiazide+reserpine (HHR; 30+10+0.2 mg·kg^−1·day^−1) in the drinking water as described in Welch et al., Kidney Int., 63:202-208 (2003) in order to maximize survival of the clipped rats. The HHR treatment was discontinued 14 days prior to undergoing the protocol described hereinafter.
(§3) Twelve months after clipping, all rats were anesthetized with Inactin (100 mg·kg^−1 i.p.; Sigma-Aldrich, St. Louis, Mo.), and an endotracheal tube was inserted for spontaneous respiration. Rats were prepared according to the protocol described in Palm et al., Hypertension, 51:345-351 (2008). Briefly, the left femoral artery was catheterized for monitoring mean arterial blood pressure (MAP) and the left femoral vein for infusion of saline (5 ml·kg bw^−1·h^−1). The left kidney was immobilized in a plastic cup while renal cortical pO2 and cortical blood flow (CBF) were measured with O2 microelectrodes (Unisense, Aarhus, Denmark) and laser-Doppler needle probes (Transonic Systems Inc, Ithaca, N.Y.) as described in Palm et al., Diabetologia, 46:1153-1160 (2003); Palm et al., Hypertension, 51:345-351 (2008); and Liss et al., Pflügers Arch., 434:705-711 (1997).
Measurements in 2K,1C rats were made before and after injections of PD-123,319 (1 mg·kg bw^−1 bolus+1 mg·kg bw^−1·h^−1; Sigma Aldrich) followed 30 minutes later by either enalaprilat (0.3 mg·kg bw^−1 bolus+0.3 mg·kg bw^−l·h^−1; Novaplus 1.25 mg·m^−1; Baxter Healthcare Corporation, Deerfield, Ill.) or tempol (174 μmmol·kg bw^−1 bolus+174 μmmol·kg bw^−1·h^−1; Sigma Aldrich) followed 30 minutes later by enalaprilat or candesartan (1 mg·kg bw^−1 bolus+1 mg·kg bw^−1·h^−1; provided by Astra Zeneca, Södertälje Sweden) followed after 30 minutes by enalaprilat. […] See e.g., Duke et al., Br. J. Pharmacol., 144:486-492 (2005).
The data in Example 1 was analyzed using ANOVA for multiple data sets and Student's t-test for paired comparisons. When appropriate, this was followed by Dunnett's post hoc. […] The Mann-Whitney test was used for Western blot densitometry data. For all comparisons, p<0.05 was considered statistically significant. All values are expressed as mean±SEM.

normal rats = conditions: cited from earlier work
sham rats = test: Acute interventions in anesthetized age-matched sham rats: MAP, cortical blood flow and renal pO2; type: in vivo, Sprague-Dawley rats
Experimental: as §1, §2
as §3, with “Rats were prepared according to the protocol described in Palm et al., Hypertension, 51:345-351 (2008). Briefly, the left femoral artery was catheterized for monitoring mean arterial blood pressure (MAP) and the left femoral vein for infusion of saline (5 ml·kg bw^−1·h^−1).” left out, “(1997). […]” for “(1997).”
The data in Example 1 was analyzed using ANOVA for multiple data sets and Student's t-test for paired comparisons. […] All values are expressed as mean±SEM.

[2] = system: 2K,1C Goldblatt rats in the early stages of renal hypertension; conditions: early stage 2K,1C Goldblatt rats; prolonged administration; cited from earlier work
[3] = reported, in contrast to early stage 2K,1C rats; similar results in a hypercholesterolemic pig model; cited from earlier work
essential hypertension = conditions: cited from earlier work
[4] = solutions containing Tempol; cited from earlier work
[5] = acute i.v. bolus + infusion of the agent alone
[6] = clipped kidney, agent alone, listed as tempol

Cc1cc(Cn2cnc3c2C[C@@H](C(=O)O)N(C(=O)C(c2ccccc2)c2ccccc2)C3)ccc1N(C)C [PD-123,319, reference compound]
mean arterial blood pressure (MAP) [1, 5]: unaffected | renal cortical blood flow (CBF) ([1]; clipped kidney, agent alone): Neither candesartan nor PD-123,319 alone changed CBF significantly | mean arterial pressure or kidney function (normal rats): has not been found to change mean arterial pressure or kidney function

CC1(C)CC(O)CC(C)(C)N1[O] [Tempol, 4-hydroxy-2,2,6,6-tetramethyl-1-piperidine-1-oxyl]
mean arterial blood pressure (MAP) [1, 5]: lowers MAP; also recorded: more effective in lowering MAP | mean arterial blood pressure (MAP) ([1]; acute i.v. bolus + infusion of the agent alone, listed as tempol): significantly more effective | renal cortical blood flow (CBF) ([1]; clipped kidney, agent alone): effectively increases both the cortical blood flow and the tissue pO2 | renal cortical pO2 ([1]; clipped kidney, agent alone): effectively increases both the cortical blood flow and the tissue pO2 | renal medullary pO2 ([1]; clipped kidney, agent alone): effectively increases both the cortical blood flow and the tissue pO2 | renal cortical blood flow (CBF) [1, 6]: increased | renal cortical pO2 [1, 6]: increased the cortical pO2 | renal medullary pO2 [1, 6]: increased the medullary pO2 | renal cortical pO2 (sham rats): not effective | glomerular filtration rate (GFR) [2]: improved the glomerular filtration rate (GFR) | mean arterial pressure (MAP) [2]: reduced mean arterial pressure (MAP) | oxygen tension (pO2) of the clipped kidney [2]: improved oxygen tension (pO2) of the clipped kidney | renal blood flow [2]: improved renal blood flow | renal blood flow, cortical perfusion or GFR [3]: failed to improve renal blood flow, cortical perfusion or GFR | anti-hypertensive effect (essential hypertension): demonstrated anti-hypertensive effect | stability of solutions left in sunlight [4]: discolor when left in sunlight

C[C@H](N[C@@H](CCc1ccccc1)C(=O)O)C(=O)N1CCC[C@H]1C(=O)O [enalaprilat, reference compound]
renal cortical blood flow (CBF) ([1]; enalaprilat after tempol): did not change further | renal medullary pO2 ([1]; enalaprilat after tempol): did not change the medullary pO2 further | renal cortical blood flow (CBF) ([1]; enalaprilat following candesartan): reduced significantly | mean arterial blood pressure (MAP) ([1]; enalaprilat given 30 minutes after PD-123,319): did reduce the MAP | mean arterial blood pressure (MAP) ([1]; enalaprilat given 30 minutes after candesartan): did not produce a further fall in MAP | mean arterial blood pressure (MAP) ([1]; enalaprilat given 30 minutes after tempol): did not produce a further fall in MAP | renal cortical pO2 ([1]; tempol followed by enalaprilat): not changed significantly | renal cortical pO2 (sham rats): increased cortical pO2
